Results from patent US12264159B2, “Functionalized heterocycles as antiviral agents” (Enanta Pharmaceuticals, Inc., priority 2018, dated 2025).
pEC50: −log10 of the molar value.

Columns and labels:
[1] = tested on: HBV in 2.2.15 cells; test: 2.2.15 cells: viral product in cell lysates quantified via quantitative real time PCR; format: cell-based, hepatitis B virus (HBV); conditions: Hepatitis B virus, 120 h, day 5 post treatment, 50% reduction of viral product vs no drug controls, readout (qPCR, HBsAg or HBeAg) not specified for the column
Description: 2.2.15 cells are passaged upon attaining confluency in DMEM/F12 media in the presence of 10% FBS, Penn/Strep, and 250 ug/mL G418. Novel compounds are 5 fold serially diluted in DMSO and added to 96 well plates containing 35,000 cells/well at a 1:200 dilution so that the final concentration of DMSO is 0.5%. On day 5, post treatment cell lysates and supernatants are harvested for analysis.
Cells are lysed using Agilent Sidestep Lysis buffer, diluted 1:100 and quantified via quantitative real time PCR. Commercially available ELISA kits are used to quantitate the viral proteins HBsAg (Alpco) or HBeAg (US Biological) by following the manufacturer's recommended protocol after diluting samples to match the linear range of their respective assays. Irrespective of readout, compound concentrations that reduce viral product accumulation in the cell lysates or supernatants by 50% relative to no drug controls (EC50) are reported; EC50 ranges are as follows: A<0.1 μM; B 0.2-1 μM; C>1 μM.

[2] = Compound induced cellular toxicity in HepG2 cells, ATPlite 1Step; format: cell-based; conditions: human, three days exposure, 50% reduction of total ATP vs no drug controls
Description: At day 3, post seeding cells are treated with ATPlite 1Step according to the manufacturer's instructions.

Row | SMILES | pEC50 [1] | CC50 at 3 days [2] [µM]
1 | CC(C)(C)[C@@H]1Cn2nc(C3CC3)c(-c3ccc(F)c(F)c3)c2-c2cc(=O)c(C(=O)O)cn21 [Example 151, (R)-6-(tert-butyl)-2-cyclopropyl-1-(3,4-difluorophenyl)-10-oxo-5,6-dihydro-10H-pyrazolo[1,5-a]pyrido[2,1-c]pyrazine-9-carboxylic acid] | > 7.00 | > 25
2 | CC(C)(C)[C@@H]1Cn2nc(-c3ccccc3C#N)cc2-c2cc(=O)c(C(=O)O)cn21 [Example 40, (R)-6-(tert-butyl)-2-(2-cyanophenyl)-10-oxo-5,6-dihydro-10H-pyrazolo[1,5-a]pyrido[2,2-c]pyrazine-12-carboxylic acid] | > 7.00 | > 25
3 | CC(C)[C@@H]1Cn2nc(C3CC3)c(-c3cccc(O)c3)c2-c2cc(=O)c(C(=O)O)cn21 [Example 142, (R)-2-cyclopropyl-1-(3-hydroxyphenyl)-6-isopropyl-10-oxo-5,6-dihydro-10H-pyrazolo[1,5-a]pyrido[2,1-c]pyrazine-9-carboxylic acid] | > 7.00 | > 25
4 | CC(C)(C)[C@@H]1Cn2nc(-c3cc(F)c(F)cc3O)cc2-c2cc(=O)c(C(=O)O)cn21 [Example 66, (R)-6-(tert-butyl)-2-(4,5-difluoro-2-hydroxyphenyl)-10-oxo-5,6-dihydro-10H-pyrazolo[1,5-a]pyrido[2,2-c]pyrazine-12-carboxylic acid] | > 7.00 | > 25
5 | C[C@@H]1Cn2nc(-c3ccccc3)c(-c3ccccc3)c2-c2cc(=O)c(C(=O)O)cn21 [Example 203, (R)-6-methyl-10-oxo-1,2-diphenyl-5,6-dihydro-10H-pyrazolo[1,5-a]pyrido[2,1-c]pyrazine-9-carboxylic acid] | > 7.00 | > 25
6 | CC(C)(C)[C@@H]1Cn2nc(-c3ccoc3)c(-c3ccoc3)c2-c2cc(=O)c(C(=O)O)cn21 [Example 96, (R)-6-(tert-butyl)-1,2-di(furan-3-yl)-10-oxo-5,6-dihydro-10H-pyrazolo[1,5-a]pyrido[2,1-c]pyrazine-9-carboxylic acid] | > 7.00 | > 25
7 | CC(C)(C)[C@@H]1Cn2ncc(-c3ccco3)c2-c2cc(=O)c(C(=O)O)cn21 [Example 108, (R)-6-(tert-butyl)-1-(furan-2-yl)-10-oxo-5,6-dihydro-10H-pyrazolo[1,5-a]pyrido[2,1-c]pyrazine-9-carboxylic acid] | > 7.00 | 10 to 25
8 | CC(C)(C)[C@@H]1Cn2nc(-c3cccc4c3sc3ccccc34)cc2-c2cc(=O)c(C(=O)O)cn21 [Example 70, (R)-6-(tert-butyl)-2-(dibenzo[b,d]thiophen-4-yl)-10-oxo-5,6-dihydro-10H-pyrazolo[1,5-a]pyrido[2,2-c]pyrazine-12-carboxylic acid] | 6.00 to 6.70 | > 25
9 | CC(C)[C@@H]1Cn2nc(-c3ccccc3)c(-c3ccccc3)c2-c2c(F)c(=O)c(C(=O)O)cn21 [Example 186, (R)-11-fluoro-6-isopropyl-10-oxo-1,2-diphenyl-5,6-dihydro-10H-pyrazolo[1,5-a]pyrido[2,1-c]pyrazine-9-carboxylic acid] | > 7.00 | > 25
10 | CC(C)(C)[C@@H]1Cn2nc(-c3ccc(F)cc3)c(-c3ccccc3)c2-c2cc(=O)c(C(=O)O)cn21 [Example 166, (R)-6-(tert-butyl)-2-(4-fluorophenyl)-10-oxo-1-phenyl-5,6-dihydro-10H-pyrazolo[1,5-a]pyrido[2,1-c]pyrazine-9-carboxylic acid] | > 7.00 | > 25
11 | CC(C)(C)[C@@H]1Cn2nc(-c3ccc(F)cc3)cc2-c2cc(=O)c(C(=O)O)cn21 [Example 1, (R)-6-(tert-butyl)-2-(4-fluorophenyl)-10-oxo-5,6-dihydro-10H-pyrazolo[1,5-a]pyrido[2,2-c]pyrazine-12-carboxylic acid] | > 7.00 | > 25
12 | COc1cc(-c2cc3n(n2)C[C@@H](C(C)(C)C)n2cc(C(=O)O)c(=O)cc2-3)c(OC)nn1 [Example 16, (R)-6-(tert-butyl)-2-(3,6-dimethoxypyridazin-4-yl)-10-oxo-5,6-dihydro-10H-pyrazolo[1,5-a]pyrido[2,2-c]pyrazine-12-carboxylic acid] | > 7.00 | > 25
13 | Cc1sccc1-c1c(C2CC2)nn2c1-c1cc(=O)c(C(=O)O)cn1[C@H](C(C)(C)C)C2 [Example 160, (R)-6-(tert-butyl)-2-cyclopropyl-1-(2-methylthiophen-3-yl)-10-oxo-5,6-dihydro-10H-pyrazolo[1,5-a]pyrido[2,1-c]pyrazine-9-carboxylic acid] | > 7.00 | > 25
14 | CC(C)(C)[C@@H]1Cn2nc(-c3ccc(F)cc3)c(F)c2-c2cc(=O)c(C(=O)O)cn21 [Example 93, (R)-6-(tert-butyl)-1-fluoro-2-(4-fluorophenyl)-10-oxo-5,6-dihydro-10H-pyrazolo[1,5-a]pyrido[2,1-c]pyrazine-9-carboxylic acid] | > 7.00 | > 25
15 | O=C(O)c1cn2c(cc1=O)-c1c(-c3cccc(F)c3)c(-c3cccc(F)c3)nn1C[C@H]2C1COC1 [Example 209, (R)-1,2-bis(3-fluorophenyl)-6-(oxetan-3-yl)-10-oxo-5,6-dihydro-10H-pyrazolo[1,5-a]pyrido[2,1-c]pyrazine-9-carboxylic acid] | > 7.00 | > 25
16 | CC(C)(C)[C@@H]1Cn2nc(-c3cccc4scnc34)cc2-c2cc(=O)c(C(=O)O)cn21 [Example 31, (R)-2-(benzo[d]thiazol-4-yl)-6-(tert-butyl)-10-oxo-5,6-dihydro-10H-pyrazolo[1,5-a]pyrido[2,2-c]pyrazine-12-carboxylic acid] | > 7.00 | > 25
17 | CC(C)(C)[C@@H]1Cn2nc(-c3cccc(F)c3)cc2-c2cc(=O)c(C(=O)O)cn21 [Example 2, (R)-6-(tert-butyl)-2-(3-fluorophenyl)-10-oxo-5,6-dihydro-10H-pyrazolo[1,5-a]pyrido[2,2-c]pyrazine-12-carboxylic acid] | > 7.00 | > 25
18 | COc1ccc(OC)c(-c2cc3n(n2)C[C@@H](C(C)(C)C)n2cc(C(=O)O)c(=O)cc2-3)c1OC [Example 35, (R)-6-(tert-butyl)-10-oxo-2-(2,3,6-trimethoxyphenyl)-5,6-dihydro-10H-pyrazolo[1,5-a]pyrido[2,2-c]pyrazine-12-carboxylic acid] | 6.00 to 6.70 | > 25
19 | COc1ccc(OCc2ccccc2)cc1-c1cc2n(n1)C[C@@H](C(C)(C)C)n1cc(C(=O)O)c(=O)cc1-2 [Example 36, (R)-2-(5-(benzyloxy)-2-methoxyphenyl)-6-(tert-butyl)-10-oxo-5,6-dihydro-10H-pyrazolo[1,5-a]pyrido[2,2-c]pyrazine-12-carboxylic acid] | > 7.00 | > 25
20 | CC(C)(C)[C@@H]1Cn2nc(-c3cccc4c3OCO4)cc2-c2cc(=O)c(C(=O)O)cn21 [Example 26, (R)-2-(benzo[d][1,3]dioxol-4-yl)-6-(tert-butyl)-10-oxo-5,6-dihydro-10H-pyrazolo[1,5-a]pyrido[2,2-c]pyrazine-12-carboxylic acid] | > 7.00 | > 25
21 | CC(C)[C@@H]1Cn2nc(-c3cccc(F)c3)c(-c3cccc(F)c3)c2-c2c(F)c(=O)c(C(=O)O)cn21 [Example 188, (R)-11-fluoro-1,2-bis(3-fluorophenyl)-6-isopropyl-10-oxo-5,6-dihydro-10H-pyrazolo[1,5-a]pyrido[2,1-c]pyrazine-9-carboxylic acid] | > 7.00 | > 25
22 | CC(C)[C@@H]1Cn2nc(-c3ccc(F)cc3)c(-c3ccc(F)cc3)c2-c2c(F)c(=O)c(C(=O)O)cn21 [Example 187, (R)-11-fluoro-1,2-bis(4-fluorophenyl)-6-isopropyl-10-oxo-5,6-dihydro-10H-pyrazolo[1,5-a]pyrido[2,1-c]pyrazine-9-carboxylic acid] | > 7.00 | 10 to 25
23 | CC(C)(C)[C@@H]1Cn2nc(C3CC3)c(-c3cccs3)c2-c2cc(=O)c(C(=O)O)cn21 [Example 156, (R)-6-(tert-butyl)-2-cyclopropyl-10-oxo-1-(thiophen-2-yl)-5,6-dihydro-10H-pyrazolo[1,5-a]pyrido[2,1-c]pyrazine-9-carboxylic acid] | > 7.00 | > 25
24 | COc1ccc(-c2cc3n(n2)C[C@@H](C(C)(C)C)n2cc(C(=O)O)c(=O)cc2-3)cc1 [Example 10, (R)-6-(tert-butyl)-2-(4-methoxyphenyl)-10-oxo-5,6-dihydro-10H-pyrazolo[1,5-a]pyrido[2,2-c]pyrazine-12-carboxylic acid] | > 7.00 | > 25
25 | CC(C)(C)[C@@H]1Cn2nc(C3CC3)c(-c3cccc4scnc34)c2-c2cc(=O)c(C(=O)O)cn21 [Example 164, (R)-1-(benzo[d]thiazol-4-yl)-6-(tert-butyl)-2-cyclopropyl-10-oxo-5,6-dihydro-10H-pyrazolo[1,5-a]pyrido[2,1-c]pyrazine-9-carboxylic acid] | > 7.00 | > 25
26 | Cc1ccc(-c2cc3n(n2)C[C@@H](C(C)(C)C)n2cc(C(=O)O)c(=O)cc2-3)cc1 [Example 20, (R)-6-(tert-butyl)-10-oxo-2-(p-tolyl)-5,6-dihydro-10H-pyrazolo[1,5-a]pyrido[2,2-c]pyrazine-12-carboxylic acid] | > 7.00 | > 25
